From patent US20100093612A1, “INTEGRIN TARGETED CYCLOPEPTIDE LIGANDS, THEIR PREPARATION AND USE” (priority 2007, published 2010)

How the values were obtained:
αvβ3 integrin receptor = biological target: T1, αvβ3 integrin receptor (Homo sapiens, UniProt P05106+P06756); assay: Solid-phase receptor-binding assay, competition with [125I]-echistatin, αvβ3; conditions: IC50 in the receptor high-affinity state; IC50±SD, average of three or more independent determinations; 0.05 nM [125I]echistatin
T1 construct: purchased Chemicon International Inc., Temecula, Calif
Method: (§1) Integrin-coated 96-well plates were incubated with the ligand in the presence of serially diluted competing compounds.
(§2) Solid-Phase Receptor-Binding Assay (General Procedure). The receptor binding assays were performed as described previously (Kumar, C. C.; et al. J. Pharmacol. Exp. Ther. 1997, 283, 843). Purified αvβ3 and αvβ5 receptors (Chemicon International Inc., Temecula, Calif.) were diluted to 500 ng/mL and 1000 ng/mL, respectively, in coating buffer [20 mM Tris-HCl (pH 7.4), 150 mM NaCl, 2 mM CaCl2, 1 mM MgCl2 and 1 mM MnCl2]. An aliquot of diluted receptors (100 μL/well) was added to 96-well microtiter plates and incubated overnight at 4° C. Coating solution was removed and 200 μL of blocking solution (coating buffer plus 1% BSA) were added to the wells and incubated for additional 2 h at room temperature. After incubation, the plates were rinsed three times with 200 μL of blocking-binding solution and incubated for 3 h at room temperature with 0.05 nM and 0.1 nM [^125I]Echistatin (Amersham Pharmacia) for αvβ3 and αvβ5 receptor binding assays, respectively. After incubation, the plates were sealed and counted in the γ-counter (Packard).

αvβ5 integrin receptor = biological target: T2, αvβ5 integrin receptor (Homo sapiens, UniProt P06756+P18084); assay: Solid-phase receptor-binding assay, competition with [125I]-echistatin, αvβ5; conditions: IC50±SD, average of three or more independent determinations, 0.1 nM [125I]echistatin
T2 construct: purchased Chemicon International Inc., Temecula, Calif
Method: as §1, §2

[1] = no high-affinity-state footnote

Row | Structure (SMILES) | IC50 (αvβ3 integrin receptor) | IC50 (αvβ5 integrin receptor; IC50 in the receptor high-affinity state) | IC50 (αvβ5 integrin receptor; [1])
1 | CCCCCCCN1C[C@@H]2C[C@H]1C(=O)N[C@@H](CCCNC(=N)N)C(=O)NCC(=O)N[C@@H](CC(=O)O)C(=O)N2 [(Ip), c[-Arg-Gly-Asp-AMPRO15-]] | 0.08 ± 0.02 nM | 0.88 ± 0.23 nM | –
2 | CCC(=O)N1C[C@@H]2C[C@H]1C(=O)N[C@@H](CCCNC(=N)N)C(=O)NCC(=O)N[C@@H](CC(=O)O)C(=O)N2 [(Ih), c[Arg-Gly-Asp-AMPRO4-]] | 0.03 ± 0.01 nM | – | 94 ± 13 nM
3 | N=C(N)NCCC[C@@H]1NC(=O)[C@@H]2C[C@H](CN2C(=O)c2ccccc2)NC(=O)[C@H](CC(=O)O)NC(=O)CNC1=O [(Ii), c[-Arg-Gly-Asp-AMPRO5-]] | 0.91 ± 0.4 nM | – | 89.2 ± 5.4 nM
4 | N=C(N)NCCC[C@@H]1NC(=O)[C@@H]2C[C@@H](CN2C(=O)c2ccccc2)NC(=O)[C@H](CC(=O)O)NC(=O)CNC1=O [(If), c[-Arg-Gly-Asp-AMPRO2-]] | 0.16 ± 0.03 nM | – | 86.6 ± 5.7 nM
